# From patent publication US20240199623A1 (ILDONG PHARMACEUTICAL CO., LTD., priority 2020, published 2024)
# Key:
# human wild type-CFTR [1] = target: T1, human wild type-CFTR (Homo sapiens, UniProt P13569); assay: Cell-based YFP assay; set-up: expressed in transfected cells; host or cells: CHO-K1 (Chinese hamster ovary); details: CHO-K1 cells expressing human wild type-CFTR and YFP-H148Q/I152L; forskolin 20 μM = 100% activity; read-out: Cell-based YFP Assay (EC50) Concentration Range
# Summary of the method: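 CHO-K1 cells co-expressing human wild-type CFTR and YFP-H148Q/I152L halide sensor, grown 48 h at 37 °C, then in PBS. YFP quenching by I⁻ influx read at 37 °C after adding 140 mM I⁻ solution, sampled every 0.4 s for 14 s. Triplicates averaged; EC50 fitted.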
# human wild type-CFTR [2] = target: T1, human wild type-CFTR; assay: Short-circuit current measurement; type: cell-based; set-up: expressed in transfected cells; details: FRT cells expressing human wild type-CFTR; Forskolin 20 μM signal used as 100% activity; read-out: Short-circuit current measurement (EC50) Concentration range
# Source text: Forskolin (Tocris cat. #1099), CFTRinh-172 (Tocris cat. #3430), amphotericin B (Tocris cat. #6930), dimethyl sulfoxide (Sigma cat. #D4540), EVC4000 Multi-Channel V/I Clamp (World Precision Instruments, Sarasota, FL), PowerLab 4/35 (AD Instruments, Castle Hill, Australia), Labchart Pro 7, GraphPad Prism 5 (GraphPad Software, Inc.). Fisher rat thyroid (FRT) cells expressing human wild type-CFTR were provided by Dr. Alan Verkman (University of California, San Francisco) and grown in DMEM/F12 medium (1:1) supplemented with 10% FBS, 2 mM glutamine, 100 units/ml penicillin and 100 μg/ml streptomycin. Snapwell inserts containing CF TR-expressing FRT cells were mounted in Ussing chambers (Physiologic Instruments, San Diego, CA). […] Forskolin, test compounds, and CFTRinh-172 were added to the apical and basolateral bath solution. Apical membrane current and short-circuit current were measured with an EVC4000 Multi-Channel V/I Clamp (World Precision Instruments, Sarasota, FL) and recorded using PowerLab 4/35 (AD Instruments, Castle Hill, Australia). Data were collected and analyzed with ADInstruments acquisition software Labchart Pro 7 software. The sampling rate was 4 Hz.
# [3] = Phosphate-buffered saline (PBS) solubility of compounds; type: physicochemical; details: aqueous buffer, thermodynamic from solid, PBS pH 7.5, 0.5 mg/mL, vortexed 90 min, filtered, LC-MS/MS, read-out: Solubility Range
# Procedure: PBS solutions (pH 7.5) were prepared according to the following compositions and stored at 4° C. Test compounds were dissolved in PBS (pH 7.5) at 0.5 mg/mL and vortexed for 90 min. The PBS solution was sequentially filtered through a 0.45, 1.2, […] syringe filter. Concentration of test compounds were determined using LC-MS/MS with appropriate dilution of the samples.
# C57BL/6 female mice = assay: Scopolamine induced tear volume reduction model; type: in vivo, mouse; details: scopolamine-injected mice, ophthalmic solution topically on both eyes 3 times a day, phenol red thread; average if evaluated twice
# Procedure: Seven-week old C57BL/6 female mice were used.
# Scopolamine hydrobromide was purchased from Sigma Aldrich (Cat No. S0929), dissolved in saline, and sterilized prior to use.
# Zone-Quick phenol red thread was obtained from Menicon.
# The test compounds used in this experiment were dissolved in PBS containing 1% of surfactant.
# Scopolamine (0.2 ml of 2.5 mg/mL solution) was injected subcutaneously 3 times a day to induce a decrease in the tear volume in the mouse. At the same time, the ophthalmic solution of test compounds or vehicle were topically administered onto both eyes 3 times a day. Tear volume was measured by phenol red thread before dosing (basal level) and 1 hour after the last administration of scopolamine and ophthalmic solution. The results were obtained by measuring the length of the phenol red thread turning red by tears. The schedule of study is expressed as FIG. 1.
# If the test compound was evaluated twice, the average value was used.
# T1 sequence (P13569 whole entry): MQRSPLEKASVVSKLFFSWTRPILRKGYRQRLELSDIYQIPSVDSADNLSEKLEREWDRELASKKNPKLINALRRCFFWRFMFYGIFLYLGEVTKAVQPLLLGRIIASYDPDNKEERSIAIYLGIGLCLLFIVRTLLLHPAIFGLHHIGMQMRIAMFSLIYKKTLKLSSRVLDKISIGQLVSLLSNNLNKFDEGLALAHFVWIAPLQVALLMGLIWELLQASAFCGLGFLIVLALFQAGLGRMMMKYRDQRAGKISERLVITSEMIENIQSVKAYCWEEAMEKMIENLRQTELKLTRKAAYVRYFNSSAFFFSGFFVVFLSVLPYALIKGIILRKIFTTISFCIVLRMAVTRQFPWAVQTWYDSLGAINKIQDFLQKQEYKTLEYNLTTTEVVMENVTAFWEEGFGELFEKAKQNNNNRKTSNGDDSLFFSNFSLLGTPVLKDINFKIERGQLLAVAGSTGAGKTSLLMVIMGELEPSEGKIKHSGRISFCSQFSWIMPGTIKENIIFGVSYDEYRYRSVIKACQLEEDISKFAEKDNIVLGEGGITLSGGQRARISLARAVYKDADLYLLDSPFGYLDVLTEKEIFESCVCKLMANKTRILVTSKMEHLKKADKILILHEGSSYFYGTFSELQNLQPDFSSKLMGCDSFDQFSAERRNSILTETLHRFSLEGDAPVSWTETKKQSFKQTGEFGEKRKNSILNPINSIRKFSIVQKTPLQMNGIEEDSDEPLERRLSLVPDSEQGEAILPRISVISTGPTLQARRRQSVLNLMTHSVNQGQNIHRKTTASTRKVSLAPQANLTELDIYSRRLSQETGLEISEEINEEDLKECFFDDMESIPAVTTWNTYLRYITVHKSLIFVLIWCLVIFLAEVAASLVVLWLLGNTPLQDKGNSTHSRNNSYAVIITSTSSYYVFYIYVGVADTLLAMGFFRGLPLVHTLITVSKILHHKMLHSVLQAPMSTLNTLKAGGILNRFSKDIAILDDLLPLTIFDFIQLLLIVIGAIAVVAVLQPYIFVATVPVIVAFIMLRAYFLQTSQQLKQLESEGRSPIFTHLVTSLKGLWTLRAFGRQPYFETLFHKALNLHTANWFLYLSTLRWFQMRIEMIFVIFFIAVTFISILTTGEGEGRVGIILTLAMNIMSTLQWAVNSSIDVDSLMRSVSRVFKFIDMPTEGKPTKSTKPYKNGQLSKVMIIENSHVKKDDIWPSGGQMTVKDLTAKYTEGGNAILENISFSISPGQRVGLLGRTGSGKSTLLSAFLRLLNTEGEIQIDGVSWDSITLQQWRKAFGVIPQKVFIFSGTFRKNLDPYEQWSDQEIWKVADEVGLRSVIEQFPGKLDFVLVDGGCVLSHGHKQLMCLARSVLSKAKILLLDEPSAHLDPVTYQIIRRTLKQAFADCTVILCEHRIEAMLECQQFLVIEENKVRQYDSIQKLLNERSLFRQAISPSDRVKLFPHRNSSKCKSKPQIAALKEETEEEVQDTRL
Structure (SMILES),EC50 (human wild type-CFTR [1]),EC50 (human wild type-CFTR [2]),solubility at 90 min [3],Ratio of tear volume (test compound to vehicle) (C57BL/6 female mice)
"COC(=O)c1ccc(NC(=O)c2cc3nccc(-c4ccc(OC)c(OC)c4)n3n2)nc1 [Compound 31, methyl 6-(7-(3,4-dimethoxyphenyl)pyrazolo [1,5-a]pyrimidine-2-carboxamido)nicotinate]",< 200 nM,< 200 nM,< 0.1 µg/mL,–
"COc1ccc(-c2ccnc3cc(C(=O)Nc4ccc(N5CCN(C(=O)OC(C)(C)C)CC5)cn4)nn23)cc1OC [Compound 272, tert-butyl 4-(6-(7-(3,4-dimethoxyphenyl)pyrazolo [1,5-a]pyrimidine-2-carboxamido)pyridin-3-yl)piperazine-1-carboxylate]",< 200 nM,–,< 0.1 µg/mL,1.14
"COC(=O)c1ccc2c(c1)CN(C(=O)c1cc3nccc(-c4ccc(OC)c(OC)c4)n3n1)CC2 [Compound 131, methyl 2-(7-(3,4-dimethoxyphenyl)pyrazolo [1,5-a]pyrimidine-2-carbonyl)-1,2,3,4-tetrahydroisoquinoline-7-carboxylate]",< 200 nM,< 200 nM,< 0.1 µg/mL,–
"COC(=O)c1ccc2c(c1)CCCN2C(=O)c1cc2nccc(-c3ccc(OC)c(OC)c3)n2n1 [Compound 133, methyl 1-(7-(3,4-dimethoxyphenyl)pyrazolo [1,5-a]pyrimidine-2-carbonyl)-1,2,3,4-tetrahydroquinoline-6-carboxylate]",< 200 nM,< 200 nM,< 0.1 µg/mL,–
"COc1ccc(-c2ccnc3cc(C(=O)Nc4ccc(NC(=O)OC(C)(C)C)cc4)nn23)cc1OC [Compound 256, tert-butyl (4-(7-(3,4-dimethoxyphenyl)pyrazolo [1,5-a]pyrimidine-2-carboxamido)phenyl) carbamate]",< 200 nM,< 200 nM,< 0.1 µg/mL,–
"COc1ccc(-c2ccnc3cc(C(=O)Nc4ccccn4)nn23)cc1OC [Compound 17, 7-(3,4-dimethoxyphenyl)-N-(pyridin-2-yl)pyrazolo[1,5-a] pyrimidine-2-carboxamide]",< 200 nM,< 200 nM,< 0.1 µg/mL,–
"COc1ccc(-c2ccnc3cc(C(=O)Nc4ccc(N5CC=CCC5)cc4)nn23)cc1OC [Compound 273, N-(4-(3,6-dihydropyridin-1(2H)-yl)phenyl)-7 (3,4-dimethoxyphenyl) pyrazolo[1,5-a]pyrimidine-2-carboxamide]",< 200 nM,–,< 0.1 µg/mL,0.80
"COc1ccc(-c2ccnc3cc(C(=O)Nc4ccc(N5CCC(=O)CC5)cc4)nn23)cc1OC [Compound 285, 7-(3,4-dimethoxyphenyl)-N-(4-(4-oxopiperidin-1-yl)phenyl)pyrazolo [1,5-a]pyrimidine-2-carboxamide]",< 200 nM,< 200 nM,–,–
"COc1ccc(-c2ccnc3cc(C(=O)Nc4ccc(N(C)C)cc4)nn23)cc1OC [Compound 276, 7-(3,4-dimethoxyphenyl)-N-(4-(dimethylamino)phenyl)pyrazolo[1,5-a]pyrimidine-2-carboxamide]",< 200 nM,–,< 0.1 µg/mL,1.21
"COC(=O)c1ccc2c(c1)N(C(=O)c1cc3nccc(-c4ccc(OC)c(OC)c4)n3n1)CC2 [Compound 132, methyl 1-(7-(3,4-dimethoxyphenyl)pyrazolo [1,5-a]pyrimidine-2-carbonyl)indoline-6-carboxylate]",< 200 nM,200 to 2000 nM,< 0.1 µg/mL,–
"COc1ccc(-c2ccnc3cc(C(=O)Nc4ccc(C(=O)N[C@H](C(=O)N5CCN(C)CC5)C(C)C)cc4)nn23)cc1OC [Compound 146, (S)-7-(3,4-dimethoxyphenyl)-N-(4-((3-methyl-1-(4-methylpiperazin-1-yl)-1-oxobutan-2-yl)carbamoyl)phenyl) pyrazolo[1,5-a]pyrimidine-2-carboxamide]",< 200 nM,< 200 nM,< 0.1 µg/mL,–
"COc1ccc(-c2ccnc3cc(C(=O)Nc4ccc(C(=O)N5CCN(C)CC5)cc4Cl)nn23)cc1OC [Compound 137, N-(2-chloro-4-(4-methylpiperazine-1-carbonyl)phenyl)-7-(3,4-dimethoxyphenyl)pyrazolo [1,5-a]pyrimidine-2-carboxamide]",200 to 2000 nM,200 to 2000 nM,–,–
"COc1ccc(-c2ccnc3cc(C(=O)Nc4ccc(C(=O)O)cc4Cl)nn23)cc1OC [Compound 106, 3-chloro-4-(7-(3,4-dimethoxyphenyl)pyrazolo [1,5-a]pyrimidine-2-carboxamido)benzoic acid]",< 200 nM,≥ 2000 nM,< 0.1 µg/mL,–
"CCOC(=O)N1CCN(C(=O)c2cc3nccc(-c4ccc(OC)c(OC)c4)n3n2)CC1 [Compound 111, ethyl 4-(7-(3,4-dimethoxyphenyl)pyrazolo[1,5-a]pyrimidine-2-carbonyl) piperazine-1-carboxylate]",200 to 2000 nM,≥ 2000 nM,–,–
"COc1ccc(-c2ccnc3cc(C(=O)Nc4ccc(N5CCCC5)cn4)nn23)cc1OC [Compound 289, 7-(3,4-dimethoxyphenyl)-N-(5-(pyrrolidin-1-yl)pyridin-2-yl)pyrazolo[1,5-a]pyrimidine-2-carboxamide]",< 200 nM,< 200 nM,–,–
"COc1ccc(-c2ccnc3cc(C(=O)Nc4ccc(C(=O)N5CCOCC5)cc4C)nn23)cc1OC [Compound 127, 7-(3,4-dimethoxyphenyl)-N-(2-methyl-4-(morpholine-4-carbonyl)phenyl)pyrazolo[1,5-a] pyrimidine-2-carboxamide]",200 to 2000 nM,200 to 2000 nM,< 0.1 µg/mL,–
"COC(=O)c1ccc2c(c1)CCN2C(=O)c1cc2nccc(-c3ccc(OC)c(OC)c3)n2n1 [Compound 130, methyl 1-(7-(3,4-dimethoxyphenyl)pyrazolo [1,5-a]pyrimidine-2-carbonyl)indoline-5-carboxylate]",< 200 nM,200 to 2000 nM,< 0.1 µg/mL,–
"COc1ccc(-c2ccnc3cc(C(=O)Nc4ccc(N5CCCC5)cc4)nn23)cc1OC [Compound 277, 7-(3,4-dimethoxyphenyl)-N-(4-(pyrrolidin-1-yl)phenyl)pyrazolo[1,5-a] pyrimidine-2-carboxamide]",< 200 nM,< 200 nM,< 0.1 µg/mL,–
"CCOC(=O)CNC(=O)c1ccc(NC(=O)c2cc3nccc(-c4ccc(OC)c(OC)c4)n3n2)cc1 [Compound 28, ethyl (4-(7-(3,4-dimethoxyphenyl)pyrazolo [1,5-a]pyrimidine-2-carboxamido)benzoyl)glycinate]",< 200 nM,< 200 nM,< 0.1 µg/mL,–
"COc1ccc(-c2ccnc3cc(C(=O)Nc4ccc(C(=O)O)cc4)nn23)cc1OC [Compound 14, 4-(7-(3,4-dimethoxyphenyl)pyrazolo[1,5-a]pyrimidine-2-carboxamido)benzoic acid]",200 to 2000 nM,≥ 2000 nM,0.1 to 10 µg/mL,–
"COc1ccc(-c2ccnc3cc(C(=O)Nc4ccc(C(=O)OCCCN5CCOCC5)cn4)nn23)cc1OC [Compound 142, 3-morpholinopropyl 6-(7-(3,4-dimethoxyphenyl)pyrazolo [1,5-a]pyrimidine-2-carboxamido)nicotinate]",< 200 nM,< 200 nM,< 0.1 µg/mL,–
